Source: ChEMBL document CHEMBL5036320, “Discovery of Icenticaftor (QBW251), a Cystic Fibrosis Transmembrane Conductance Regulator Potentiator with Clinical Efficacy in Cystic Fibrosis and Chronic Obstructive Pulmonary Disease” (J Med Chem, 2021)
≈ marks a conversion by molar mass, not a printed value.

Legend:
[1] = Clearance in Beagle dog blood at 3 mg/kg, po or 0.46 mg/kg, iv after 48 hrs by LC-MS/MS analysis; format: ADME, organism-based, Canis lupus familiaris
[2] = Volume of distribution in Sprague-Dawley rat at 3 mg/kg, po and 1 mg/kg, iv measured upto 48 hrs by LC-MS/MS analysis; format: ADME, organism-based; settings: in vivo
[3] = Solubility of the compound at pH 6.8; format: physicochemical; settings: buffer
[4] = Plasma Protein binding in Sprague-Dawley rat at 5 uM incubated for 4 hrs by rapid equilibrium dialysis; format: ADME, cell-free; settings: read-out: PPB (converted)
[5] = Mean residence time in Sprague-Dawley rat at 3 mg/kg, po and 1 mg/kg, iv measured upto 48 hrs by LC-MS/MS analysis; format: ADME, organism-based; settings: in vivo
[6] = molecular target: T1, Cystic fibrosis transmembrane conductance regulator (Homo sapiens, UniProt P13569, F508DEL); assay: Potentiation of CFTR F508 deletion mutant (unknown origin) expressed in HBE cells assessed as change in short circuit current in presence of forskolin and amiloride; format: cell-based
[7] = molecular target: T2, Cystic fibrosis transmembrane conductance regulator (Homo sapiens, UniProt P13569); assay: Potentiation of wild-type CFTR (unknown origin) expressed in FRT cells assessed as chloride transport by measuring membrane potential in presence of forskolin relative to PG-01; format: cell-based; settings: filed as activator
Target sequence in this assay (P13569 whole entry, looked up): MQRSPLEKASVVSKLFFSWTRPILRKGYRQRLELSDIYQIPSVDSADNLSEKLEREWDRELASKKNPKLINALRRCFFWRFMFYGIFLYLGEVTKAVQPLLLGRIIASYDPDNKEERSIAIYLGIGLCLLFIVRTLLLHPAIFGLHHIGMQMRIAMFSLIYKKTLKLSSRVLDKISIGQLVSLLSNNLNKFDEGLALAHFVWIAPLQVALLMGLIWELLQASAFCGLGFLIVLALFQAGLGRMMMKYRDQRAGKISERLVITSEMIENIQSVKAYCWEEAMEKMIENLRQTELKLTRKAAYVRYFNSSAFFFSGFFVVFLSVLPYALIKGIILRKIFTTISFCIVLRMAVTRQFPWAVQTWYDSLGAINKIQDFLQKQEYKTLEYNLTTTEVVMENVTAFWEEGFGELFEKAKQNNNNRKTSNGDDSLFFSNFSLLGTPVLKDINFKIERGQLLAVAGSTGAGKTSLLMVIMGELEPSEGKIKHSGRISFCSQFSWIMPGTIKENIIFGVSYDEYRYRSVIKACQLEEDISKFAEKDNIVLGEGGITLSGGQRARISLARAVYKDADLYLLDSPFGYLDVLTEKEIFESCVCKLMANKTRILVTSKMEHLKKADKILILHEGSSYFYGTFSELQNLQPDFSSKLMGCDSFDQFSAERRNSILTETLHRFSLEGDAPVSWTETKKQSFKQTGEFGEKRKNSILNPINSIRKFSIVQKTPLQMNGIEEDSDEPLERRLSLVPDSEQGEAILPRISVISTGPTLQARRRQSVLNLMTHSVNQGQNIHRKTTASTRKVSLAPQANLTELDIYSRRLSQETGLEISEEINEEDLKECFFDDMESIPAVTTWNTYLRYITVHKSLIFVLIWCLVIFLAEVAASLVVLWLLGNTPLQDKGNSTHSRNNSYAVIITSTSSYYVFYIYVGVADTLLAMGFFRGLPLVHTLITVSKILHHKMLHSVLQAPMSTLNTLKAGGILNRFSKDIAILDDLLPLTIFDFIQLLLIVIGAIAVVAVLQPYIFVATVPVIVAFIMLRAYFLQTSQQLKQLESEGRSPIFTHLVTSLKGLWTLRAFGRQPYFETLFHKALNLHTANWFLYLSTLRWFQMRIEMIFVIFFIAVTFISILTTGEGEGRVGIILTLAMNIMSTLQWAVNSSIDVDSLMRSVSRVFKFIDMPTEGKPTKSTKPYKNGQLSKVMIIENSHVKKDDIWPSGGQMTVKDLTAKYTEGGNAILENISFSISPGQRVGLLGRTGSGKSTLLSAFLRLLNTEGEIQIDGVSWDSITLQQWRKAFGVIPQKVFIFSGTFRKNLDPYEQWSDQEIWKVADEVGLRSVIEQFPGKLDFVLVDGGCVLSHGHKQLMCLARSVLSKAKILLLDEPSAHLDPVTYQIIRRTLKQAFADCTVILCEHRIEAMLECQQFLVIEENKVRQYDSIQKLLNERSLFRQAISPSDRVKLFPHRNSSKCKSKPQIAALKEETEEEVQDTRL

[8] = Unbound Cmax in Sprague-Dawley rat at 3 mg/kg, po and 1 mg/kg, iv measured upto 48 hrs by LC-MS/MS analysis; format: ADME, organism-based; settings: in vivo
[9] = Cmax in cynomolgus monkey at 10 mg/kg, po or 0.1 mg/kg, iv after 48 hrs by LC-MS/MS analysis; format: ADME, organism-based, Macaca fascicularis; design: time 48 hrs, dose 10 mg/kg; settings: in vivo
[10] = molecular target: Cystic fibrosis transmembrane conductance regulator (Homo sapiens, UniProt P13569, G551D); assay: Potentiation of CFTR G551D mutant (unknown origin) expressed in FRT cells assessed as chloride transport by measuring membrane potential in presence of forskolin; format: cell-based
[11] = Oral bioavailability in cynomolgus monkey at 10 mg/kg after 48 hrs by LC-MS/MS analysis; format: ADME, organism-based, Macaca fascicularis; settings: in vivo
[12] = Mean residence time in Beagle dog at 3 mg/kg, po or 0.46 mg/kg, iv after 48 hrs by LC-MS/MS analysis; format: ADME, organism-based, Canis lupus familiaris; settings: in vivo
[13] = Volume of distribution at steady state in Beagle dog at 3 mg/kg, po or 0.46 mg/kg, iv after 48 hrs by LC-MS/MS analysis; format: ADME, organism-based, Canis lupus familiaris; settings: in vivo, read-out: Vdss
[14] = Clearance in Sprague-Dawley rat at 3 mg/kg, po and 1 mg/kg, iv measured upto 48 hrs by LC MS/MS analysis; format: ADME, organism-based; settings: in vivo
[15] = Cmax in Beagle dog at 3 mg/kg, po or 0.46 mg/kg, iv after 48 hrs by LC-MS/MS analysis; format: ADME, organism-based, Canis lupus familiaris; design: time 48 hrs, dose 3 mg/kg; settings: in vivo
[16] = Clearance in cynomolgus monkey blood at 10 mg/kg, po or 0.1 mg/kg, iv after 48 hrs by LC-MS/MS analysis; format: ADME, organism-based, Macaca fascicularis
[17] = molecular target: T1, Cystic fibrosis transmembrane conductance regulator; assay: Potentiation of CFTR F508del mutant (unknown origin) expressed in FRT cells assessed as chloride transport by measuring membrane potential in presence of forskolin; format: cell-based
[18] = Clearance in cynomolgus monkey plasma at 10 mg/kg, po or 0.1 mg/kg, iv after 48 hrs by LC-MS/MS analysis; format: ADME, organism-based, Macaca fascicularis
[19] = molecular target: T1, Cystic fibrosis transmembrane conductance regulator; assay: Potentiation of CFTR F508del mutant (unknown origin) expressed in CHO cells assessed as chloride transport by measuring membrane potential incubated for 5 to 30 mins in presence of forskolin by Quattro assay; format: cell-based
[20] = molecular target: T2, Cystic fibrosis transmembrane conductance regulator; assay: Potentiation of wild type CFTR (unknown origin) expressed in HBE cells assessed as change in short circuit current in presence of forskolin and amiloride; format: cell-based
Target sequence in this assay (P13569 whole entry): as the sequence (P13569 whole entry, looked up) above

[21] = Cmax in Sprague-Dawley rat at 3 mg/kg, po and 1 mg/kg, iv measured upto 48 hrs by LC-MS/MS analysis; format: ADME, organism-based; design: dose 3 mg/kg, time <=48; settings: in vivo
[22] = Oral bioavailability in Beagle dog at 3 mg/kg after 48 hrs by LC-MS/MS analysis; format: ADME, organism-based, Canis lupus familiaris; settings: in vivo
[23] = tested on: Cystic fibrosis transmembrane conductance regulator (Homo sapiens), P13569 [F508del]; assay: Potentiation of CFTR F508del mutant (unknown origin) expressed in CHO cells assessed as chloride transport by measuring membrane potential incubated for 5 to 30 mins in presence of forskolin by Quattro assay relative to PG-01; format: cell-based; design: concentration or dose not given beside the values; settings: filed as activator, time 5-30 min
[24] = molecular target: T2, Cystic fibrosis transmembrane conductance regulator; assay: Potentiation of wild-type CFTR (unknown origin) expressed in FRT cells assessed as chloride transport by measuring membrane potential in presence of forskolin; format: cell-based
Target sequence in this assay (P13569 whole entry): as the sequence (P13569 whole entry, looked up) above

[25] = Toxicity in human assessed as tolerability upto […], po bid; format: organism-based; settings: in vivo
[26] = Unbound Cmax in cynomolgus monkey plasma measured at 10 mg/kg, po or 0.1 mg/kg, iv after 48 hrs by LC-MS/MS analysis; format: ADME, organism-based, Macaca fascicularis; settings: in vivo
[27] = tested on: Cystic fibrosis transmembrane conductance regulator (Homo sapiens), P13569 [F508del]; assay: Potentiation of CFTR F508 deletion mutant (unknown origin) expressed in HBE cells assessed as change in short circuit current in presence of forskolin and amiloride relative to PG-01; format: cell-based; settings: filed as activator
[28] = Mean residence time in cynomolgus monkey at 10 mg/kg, po or 0.1 mg/kg, iv after 48 hrs by LC-MS/MS analysis; format: ADME, organism-based, Macaca fascicularis; settings: in vivo
[29] = tested on: Cystic fibrosis transmembrane conductance regulator (Homo sapiens), P13569 [G551D]; assay: Potentiation of CFTR G551D mutant (unknown origin) expressed in FRT cells assessed as chloride transport by measuring membrane potential in presence of forskolin relative to PG-01; format: cell-based; settings: filed as activator
[30] = Unbound Cmax in Beagle dog at 3 mg/kg, po or 0.46 mg/kg, iv after 48 hrs by LC-MS/MS analysis; format: ADME, organism-based, Canis lupus familiaris; settings: in vivo
[31] = Toxicity in Wistar Han rat assessed as NOAEL; settings: in vivo, dose 10 mg/kg
[32] = Clearance in Beagle dog plasma at 3 mg/kg, po or 0.46 mg/kg, iv after 48 hrs by LC-MS/MS analysis; format: ADME, organism-based, Canis lupus familiaris
[33] = Oral bioavailability in Sprague-Dawley rat at 3 mg/kg measured upto 48 hrs by LC-MS/MS analysis; format: ADME, organism-based; settings: in vivo
[34] = Volume of distribution at steady state in cynomolgus monkey at 10 mg/kg, po or 0.1 mg/kg, iv after 48 hrs by LC-MS/MS analysis; format: ADME, organism-based, Macaca fascicularis; settings: in vivo, read-out: Vdss
[35] = Toxicity in Wistar Han rat assessed as tolerability at 100 mg/kg, po after 2 days; format: organism-based; settings: in vivo, 48 h, time 2 day
[36] = molecular target: T2, Cystic fibrosis transmembrane conductance regulator; assay: Potentiation of wild type CFTR (unknown origin) expressed in HBE cells assessed as change in short circuit current in presence of forskolin and amiloride relative to PG-01; format: cell-based; settings: filed as activator
Target sequence in this assay (P13569 whole entry, looked up): as above

[37] = tested on: Cystic fibrosis transmembrane conductance regulator (Homo sapiens), P13569 [F508del]; assay: Potentiation of CFTR F508del mutant (unknown origin) expressed in FRT cells assessed as chloride transport by measuring membrane potential in presence of forskolin relative to PG-01; format: cell-based; settings: filed as activator
[38] = Clearance in Sprague-Dawley rat at 3 mg/kg, po and 0.5 mg/kg, iv measured upto 48 hrs by LC-MS/MS analysis; format: ADME, organism-based; settings: in vivo
[39] = Volume of distribution at steady state in Sprague-Dawley rat at 3 mg/kg, po and 0.5 mg/kg, iv measured upto 48 hrs by LC-MS/MS analysis; format: ADME, organism-based; settings: in vivo, read-out: Vdss
[40] = Cmax in Sprague-Dawley rat at 3 mg/kg, po and 0.5 mg/kg, iv measured upto 48 hrs by LC-MS/MS analysis; format: ADME, organism-based; design: dose 3 mg/kg, time <=48; settings: in vivo
[41] = Mean residence time in Sprague-Dawley rat at 3 mg/kg, po and 0.5 mg/kg, iv measured upto 48 hrs by LC-MS/MS analysis; format: ADME, organism-based; settings: in vivo
[42] = Drug metabolism in Sprague-Dawley rat bile assessed as glutathione adduct M9 formation at 1 mg/kg, po after 24 hrs by LC MS/MS analysis; format: ADME, organism-based; settings: in vivo
[43] = Drug metabolism in Sprague-Dawley rat bile assessed as glutathione adduct M8 formation at 1 mg/kg, po after 24 hrs by LC MS/MS analysis; format: ADME, organism-based; settings: in vivo
[44] = Plasma Protein binding in human incubated for 4 hrs by equilibrium dialysis method; format: ADME, cell-free; settings: read-out: PPB (converted)

Sequence of Cystic fibrosis transmembrane conductance regulator (Homo sapiens), P13569 [F508del] (P13569 as listed by the source): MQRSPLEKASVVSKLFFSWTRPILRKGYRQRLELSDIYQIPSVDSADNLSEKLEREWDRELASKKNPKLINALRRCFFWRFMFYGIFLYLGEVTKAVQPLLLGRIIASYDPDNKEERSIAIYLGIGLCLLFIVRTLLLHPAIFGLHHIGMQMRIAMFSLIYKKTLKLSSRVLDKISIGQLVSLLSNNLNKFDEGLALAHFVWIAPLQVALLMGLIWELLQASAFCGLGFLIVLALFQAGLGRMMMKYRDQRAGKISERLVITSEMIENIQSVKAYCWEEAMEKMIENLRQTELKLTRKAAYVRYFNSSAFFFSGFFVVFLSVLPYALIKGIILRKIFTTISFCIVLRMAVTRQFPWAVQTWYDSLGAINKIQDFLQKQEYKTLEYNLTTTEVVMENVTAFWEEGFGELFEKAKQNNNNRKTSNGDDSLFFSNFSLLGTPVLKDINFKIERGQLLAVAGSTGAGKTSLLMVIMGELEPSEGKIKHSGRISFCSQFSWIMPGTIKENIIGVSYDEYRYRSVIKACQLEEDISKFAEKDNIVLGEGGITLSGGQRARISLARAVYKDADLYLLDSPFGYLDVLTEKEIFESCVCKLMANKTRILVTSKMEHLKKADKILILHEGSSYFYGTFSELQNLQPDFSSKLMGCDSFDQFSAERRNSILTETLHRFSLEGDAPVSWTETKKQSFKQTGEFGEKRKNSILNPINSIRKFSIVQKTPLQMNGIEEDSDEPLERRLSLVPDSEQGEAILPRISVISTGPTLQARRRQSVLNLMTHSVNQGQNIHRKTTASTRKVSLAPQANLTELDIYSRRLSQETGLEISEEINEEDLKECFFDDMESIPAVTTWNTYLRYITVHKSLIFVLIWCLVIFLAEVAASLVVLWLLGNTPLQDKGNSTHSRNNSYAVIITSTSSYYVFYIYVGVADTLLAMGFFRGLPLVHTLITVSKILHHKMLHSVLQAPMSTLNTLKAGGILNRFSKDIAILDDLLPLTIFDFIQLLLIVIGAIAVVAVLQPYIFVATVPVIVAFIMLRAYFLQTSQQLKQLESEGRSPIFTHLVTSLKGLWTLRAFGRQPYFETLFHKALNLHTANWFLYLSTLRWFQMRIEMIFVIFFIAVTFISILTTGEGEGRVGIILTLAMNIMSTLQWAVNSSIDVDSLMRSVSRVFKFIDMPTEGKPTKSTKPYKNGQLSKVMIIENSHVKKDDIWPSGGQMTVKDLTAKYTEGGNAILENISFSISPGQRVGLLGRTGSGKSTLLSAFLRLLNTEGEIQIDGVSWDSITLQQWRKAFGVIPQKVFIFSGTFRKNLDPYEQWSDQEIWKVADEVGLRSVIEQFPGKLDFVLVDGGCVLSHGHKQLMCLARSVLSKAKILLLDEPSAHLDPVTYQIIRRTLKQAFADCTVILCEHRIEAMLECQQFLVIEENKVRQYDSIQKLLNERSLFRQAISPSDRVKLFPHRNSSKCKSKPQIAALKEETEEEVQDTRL
T1 sequence (P13569 as listed by the source): as above
Sequence of Cystic fibrosis transmembrane conductance regulator (Homo sapiens), P13569 [G551D] (P13569 whole entry G551D): as the sequence (P13569 whole entry, looked up) above, with G551D counted along it
Sequence of Cystic fibrosis transmembrane conductance regulator (Homo sapiens, UniProt P13569, G551D) (P13569 whole entry G551D): as the sequence (P13569 whole entry, looked up) above, with G551D counted along it

Compound	Vd [2] [L/kg]	solubility [3] [µg/mL]	fraction unbound at 4 h, 5 µM [4]	MRT [5] [h]	EC50 [6] [nM]	Activity [7] [%]	fCmax [8] [nM]	EC50 [10] [nM]	clearance [14] [mL/min/kg]	EC50 [17] [nM]	EC50 [19] [nM]	Cmax [21] [nM]	Activity [23] [%]	EC50 [24] [nM]	Activity [27] [%]	Activity [29] [%]	NOAEL [31] [mg/kg]	bioavailability [33] [%]	Activity [37] [%]	also measured
COc1nc(C(=O)NC[C@](C)(O)C(F)(F)F)c(N)cc1C(F)(F)F [ICENTICAFTOR]	3	237 (≈ 656 µM)	0.097	10.2	39	79	132	497	5	79	47	1360	96	113	84	40	10	90	92	clearance [1]: 41 mL/min/kg; Cmax [9]: 2300 nM; bioavailability [11]: 26%; MRT [12]: 4.4 h; Vd [13]: 7.5 L/kg; Cmax [15]: 1950 nM; clearance [16]: 20.2 mL/min/kg; clearance [18]: 18 mL/min/kg; EC50 [20]: 72 nM; bioavailability [22]: 146%; Activity [25]: Non-Toxic; fCmax [26]: 276 nM; MRT [28]: 3.3 h; fCmax [30]: 102 nM; clearance [32]: 29 mL/min/kg; Vd [34]: 3.5 L/kg; Activity [35]: Non-Toxic; Activity [36]: 87%
Nc1cc(C(F)(F)F)c(Br)nc1C(=O)NC[C@@H](O)C(F)(F)F		177 (≈ 447 µM)									9		100					32		clearance [38]: 53 mL/min/kg; Vd [39]: 3.2 L/kg; Cmax [40]: 271 nM; MRT [41]: 1 h
C[C@](O)(CNC(=O)c1nc(Br)c(C(F)(F)F)cc1N)C(F)(F)F	6.5	140 (≈ 341 µM)	0.031	6.4	25	140	25	150	17	18	15	634	107	43	113	67	< 10	114	106	Drug metabolism [42]: Metabolite_Detected; Drug metabolism [43]: Metabolite_Detected; fraction unbound at 4 h [44]: 0.025
